Source: the NIST ThermoML archive (doi:10.1016/j.fluid.2017.02.012)
± gives the expanded uncertainty stated by the source.

Conditions: Liquid, Pendant drop shape

CCCCCCCCCCCCCCC [pentadecane] + O=C=O
interfacial tension (313.15 K, 430 kPa): 21.65 ± 0.3 mN/m
interfacial tension (313.15 K, 1100 kPa): 20.48 ± 0.28 mN/m
interfacial tension (313.15 K, 2090 kPa): 18.38 ± 0.25 mN/m
interfacial tension (313.15 K, 3090 kPa): 16.15 ± 0.22 mN/m
interfacial tension (313.15 K, 4080 kPa): 14.04 ± 0.19 mN/m
interfacial tension (313.15 K, 5090 kPa): 11.41 ± 0.16 mN/m
interfacial tension (313.15 K, 6090 kPa): 8.91 ± 0.13 mN/m
interfacial tension (313.15 K, 6890 kPa): 6.25 ± 0.1 mN/m
interfacial tension (313.15 K, 8060 kPa): 2.69 ± 0.08 mN/m
interfacial tension (333.15 K, 360 kPa): 20.84 ± 0.29 mN/m
interfacial tension (333.15 K, 1380 kPa): 19.61 ± 0.27 mN/m
interfacial tension (333.15 K, 2390 kPa): 17.57 ± 0.24 mN/m
interfacial tension (333.15 K, 3490 kPa): 15.7 ± 0.22 mN/m
interfacial tension (333.15 K, 4330 kPa): 14.41 ± 0.2 mN/m
interfacial tension (333.15 K, 5290 kPa): 12.81 ± 0.18 mN/m
interfacial tension (333.15 K, 5990 kPa): 11.75 ± 0.16 mN/m
interfacial tension (333.15 K, 7290 kPa): 9.17 ± 0.13 mN/m
interfacial tension (333.15 K, 8400 kPa): 6.86 ± 0.1 mN/m
interfacial tension (333.15 K, 9860 kPa): 4.22 ± 0.07 mN/m
interfacial tension (353.15 K, 580 kPa): 19.83 ± 0.27 mN/m
interfacial tension (353.15 K, 1630 kPa): 18.11 ± 0.25 mN/m
interfacial tension (353.15 K, 2790 kPa): 17.01 ± 0.23 mN/m
interfacial tension (353.15 K, 3610 kPa): 15.63 ± 0.21 mN/m
interfacial tension (353.15 K, 4630 kPa): 14.2 ± 0.19 mN/m
interfacial tension (353.15 K, 5700 kPa): 12.85 ± 0.18 mN/m
interfacial tension (353.15 K, 6630 kPa): 11.53 ± 0.16 mN/m
interfacial tension (353.15 K, 7720 kPa): 9.79 ± 0.14 mN/m
interfacial tension (353.15 K, 8560 kPa): 8.69 ± 0.12 mN/m
interfacial tension (353.15 K, 9490 kPa): 7.32 ± 0.1 mN/m
interfacial tension (353.15 K, 10730 kPa): 5.87 ± 0.09 mN/m
interfacial tension (353.15 K, 11560 kPa): 4.82 ± 0.07 mN/m
interfacial tension (353.15 K, 12000 kPa): 4.24 ± 0.07 mN/m
interfacial tension (373.15 K, 1080 kPa): 18.21 ± 0.25 mN/m
interfacial tension (373.15 K, 2060 kPa): 16.61 ± 0.23 mN/m
interfacial tension (373.15 K, 3240 kPa): 15.25 ± 0.21 mN/m
interfacial tension (373.15 K, 4280 kPa): 14.53 ± 0.2 mN/m
interfacial tension (373.15 K, 5390 kPa): 13.01 ± 0.18 mN/m
interfacial tension (373.15 K, 6240 kPa): 12.08 ± 0.17 mN/m
interfacial tension (373.15 K, 7340 kPa): 10.81 ± 0.15 mN/m
interfacial tension (373.15 K, 8340 kPa): 9.6 ± 0.13 mN/m
interfacial tension (373.15 K, 9400 kPa): 8.42 ± 0.12 mN/m
interfacial tension (373.15 K, 10490 kPa): 7.37 ± 0.1 mN/m
interfacial tension (373.15 K, 12060 kPa): 5.74 ± 0.08 mN/m
interfacial tension (373.15 K, 13190 kPa): 4.64 ± 0.07 mN/m
interfacial tension (373.15 K, 13960 kPa): 4.06 ± 0.06 mN/m
interfacial tension (393.15 K, 3280 kPa): 14.72 ± 0.2 mN/m
interfacial tension (393.15 K, 5680 kPa): 12.36 ± 0.17 mN/m
interfacial tension (393.15 K, 8600 kPa): 9.58 ± 0.13 mN/m
interfacial tension (393.15 K, 11400 kPa): 6.86 ± 0.1 mN/m
interfacial tension (393.15 K, 14720 kPa): 4.22 ± 0.06 mN/m

CCCCCCCCCCCCC [tridecane] + O=C=O
interfacial tension (313.15 K, 550 kPa): 22.3 ± 0.31 mN/m
interfacial tension (313.15 K, 2100 kPa): 18.58 ± 0.26 mN/m
interfacial tension (313.15 K, 3240 kPa): 15.83 ± 0.22 mN/m
interfacial tension (313.15 K, 4300 kPa): 13.06 ± 0.18 mN/m
interfacial tension (313.15 K, 5300 kPa): 10.43 ± 0.15 mN/m
interfacial tension (313.15 K, 5940 kPa): 8.57 ± 0.13 mN/m
interfacial tension (313.15 K, 7490 kPa): 3.8 ± 0.08 mN/m
interfacial tension (333.15 K, 330 kPa): 21.41 ± 0.3 mN/m
interfacial tension (333.15 K, 1360 kPa): 19.62 ± 0.27 mN/m
interfacial tension (333.15 K, 2440 kPa): 17.54 ± 0.25 mN/m
interfacial tension (333.15 K, 3580 kPa): 15.34 ± 0.22 mN/m
interfacial tension (333.15 K, 5410 kPa): 11.87 ± 0.17 mN/m
interfacial tension (333.15 K, 5930 kPa): 10.74 ± 0.15 mN/m
interfacial tension (333.15 K, 6830 kPa): 9.08 ± 0.13 mN/m
interfacial tension (333.15 K, 8000 kPa): 6.91 ± 0.1 mN/m
interfacial tension (333.15 K, 8780 kPa): 5.38 ± 0.09 mN/m
interfacial tension (333.15 K, 9410 kPa): 4.25 ± 0.07 mN/m
interfacial tension (333.15 K, 10010 kPa): 3.24 ± 0.06 mN/m
interfacial tension (353.15 K, 440 kPa): 19.97 ± 0.28 mN/m
interfacial tension (353.15 K, 1760 kPa): 17.82 ± 0.25 mN/m
interfacial tension (353.15 K, 3190 kPa): 15.75 ± 0.22 mN/m
interfacial tension (353.15 K, 4830 kPa): 13.15 ± 0.18 mN/m
interfacial tension (353.15 K, 5700 kPa): 11.84 ± 0.17 mN/m
interfacial tension (353.15 K, 6050 kPa): 11.5 ± 0.16 mN/m
interfacial tension (353.15 K, 7500 kPa): 9.24 ± 0.13 mN/m
interfacial tension (353.15 K, 8990 kPa): 7.3 ± 0.11 mN/m
interfacial tension (353.15 K, 10030 kPa): 5.75 ± 0.09 mN/m
interfacial tension (353.15 K, 10880 kPa): 4.76 ± 0.08 mN/m
interfacial tension (353.15 K, 11770 kPa): 3.76 ± 0.06 mN/m
interfacial tension (373.15 K, 540 kPa): 18.67 ± 0.26 mN/m
interfacial tension (373.15 K, 2380 kPa): 16.03 ± 0.22 mN/m
interfacial tension (373.15 K, 4400 kPa): 13.13 ± 0.18 mN/m
interfacial tension (373.15 K, 5790 kPa): 11.68 ± 0.16 mN/m
interfacial tension (373.15 K, 8100 kPa): 9.03 ± 0.13 mN/m
interfacial tension (373.15 K, 9910 kPa): 6.93 ± 0.1 mN/m
interfacial tension (373.15 K, 12260 kPa): 4.57 ± 0.07 mN/m
interfacial tension (373.15 K, 13710 kPa): 3.32 ± 0.05 mN/m
interfacial tension (393.15 K, 410 kPa): 17.04 ± 0.24 mN/m
interfacial tension (393.15 K, 4630 kPa): 12.6 ± 0.18 mN/m
interfacial tension (393.15 K, 8730 kPa): 8.27 ± 0.12 mN/m
interfacial tension (393.15 K, 13580 kPa): 4.32 ± 0.07 mN/m
